Tested on: S. aureus, P. aeruginosa, c. albicans, E. coli and/or A. niger
Test: abbreviated preservative efficacy test against USP, EP-A and EP-B criteria
Format: cell-based
Conditions: 20 ppm BAK alone
Method: Each of these formulations is tested by performing an abbreviated preservative efficacy test using test organisms S. aureus, P. aeruginosa, c. albicans, E. coli and/or A. niger. The formulations are tested against United States Pharmacopeia Preservative Efficacy Test (USP), European Pharmacopeia Efficacy Test-A (EP-A) and European Pharmacopeia Efficacy Test-B (EP-B) criteria as indicated. Ten (10) ml of each formulation is challenged with approximately 10^5 cfu/ml of test organism. At appropriate time intervals, the amount of bacterial and fungal survivors are assayed using Dey Engley broth (DE) as the neutralizer media. DE, along with filtration, is sufficient at neutralizing the antimicrobial agents in the compositions. One (1) ml of each sample is diluted into nine (9) ml of DE. One (1) ml of the 1:10 dilution is filtered through a 0.45 µm filter and washed with 100 ml of a saline/polysorbate 80 solution. After washing the filtrate a second time with 100 ml of saline/polysorbate 80 solution, the filtrate is placed onto a TSA plate for bacteria and SAB for fungi.

## benzalkonium chloride [BAK]
  Ph Eur-B & A criteria: failed

Reference: patent publication US20110251285A1, “COMBINATIONS OF PRESERVATIVES FOR OPHTHALMIC COMPOSITIONS” (ALLERGAN, INC., priority 2010, published 2011)
